Test results from US20130096145A1, “Use of 1H-quinazoline-2,4-diones” (Novartis AG, priority 2010, published 2013).

Test system: mouse
Experiment: Oral bioavailability: audiogenic mouse test and/or MES test
Format: in vivo
Conditions: oral administration
Description: The oral bioavailability was tested using the audiogenic mouse test (Audiogenic seizures, R. L. Collins; Chapter 14, pages: 347-372. In: Experimental Models of Epilepsy; By: Pupura, Penry, Tower, Woodbury, Walter, Raven Press, New York, 1972. Standard Book Number: 0-911216-26-X) and/or the MES test.
(§1) Compounds of the invention were tested in OF1 mice using the maximal electroshock test (MES Test) described in detail by Schmutz et al., Naunyn-Schmiedeberg's Arch Pharmacol 1990, 342, 61-66. Briefly, generalized tonic-clonic convulsions of the hind extremities were induced by passing electrical current through temporal electrodes (50 Hz, 18 mA, 0.2s). […] 30 mg/kg carbamazepine was used as a positive control; mice were classified as protected by a compound if the duration of the seizure lasted only 3 second or less. Five mice were used for each treatment condition and the percentage of protected mice was used as readout (i.e. a compound could give 0%, 20%, 40%, 60%, 80% or 100% protection). Compounds of the invention were given at a dose of 50 mg/kg, p.o., 1 hour prior to induction of convulsions (i.e. “pre-treatment time -1 h”). ED50 values (ED: effective dose) were calculated using GraphPad Prism, v4.02. 15 s after shock administration, mouse blood was collected for determination of compounds' blood exposure.

Compound	In vivo orally active
CCC(O)c1cc2c(=O)n(NS(C)(=O)=O)c(=O)[nH]c2cc1C(F)(F)F (stereo not drawn) [Compound A-3, N-[6-(1-Hydroxy-propyl)-2,4-dioxo-7-trifluoromethyl-1,4-dihydro-2H-quinazolin-3-yl]-methanesulfonamide]	Yes
Cn1nccc1-c1cc2c(=O)n(NS(C)(=O)=O)c(=O)[nH]c2cc1C(F)(F)F [Compound C-18, N-[6-(2-Methyl-2H-pyrazol-3-yl)-2,4-dioxo-7-trifluoromethyl-1,4-dihydro-2H-quinazolin-3-yl]-methanesulfonamide]	Yes
COCCn1nccc1-c1cc2c(=O)n(NS(C)(=O)=O)c(=O)[nH]c2cc1C(C)C [Compound C-1, N-{7-Isopropyl-6-[2-(2-methoxy-ethyl)-2H-pyrazol-3-yl]-2,4-dioxo-1,4-dihydro-2H-quinazolin-3-yl}-methanesulfonamide]	yes
CCc1cc2[nH]c(=O)n(NS(C)(=O)=O)c(=O)c2cc1-c1ccnn1C [Compound C-11, N-[7-Ethyl-6-(2-methyl-2H-pyrazol-3-yl)-2,4-dioxo-1,4-dihydro-2H-quinazolin-3-yl]-methanesulfonamide]	Yes
CCc1cc2[nH]c(=O)n(NS(C)(=O)=O)c(=O)c2cc1-c1ccnn1CC [Compound C-12, N-[7-Ethyl-6-(2-ethyl-2H-pyrazol-3-yl)-2,4-dioxo-1,4-dihydro-2H-quinazolin-3-yl]-methanesulfonamide]	Yes
COCCn1nccc1-c1cc2c(=O)n(NS(C)(=O)=O)c(=O)[nH]c2cc1C(F)(F)F [Compound C-4, N-{6-[2-(2-Methoxy-ethyl)-2H-pyrazol-3-yl]-2,4-dioxo-7-trifluoromethyl-1,4-dihydro-2H-quinazolin-3-yl}-methanesulfonamide]	Yes
CC(OC1CCCC1)c1cc2c(=O)n(NS(C)(=O)=O)c(=O)[nH]c2cc1C(F)(F)F (stereo not drawn) [Compound A-14, N-[6-(1-Cyclopentyloxy-ethyl)-2,4-dioxo-7-trifluoromethyl-1,4-dihydro-2H-quinazolin-3-yl]-methanesulfonamide]	yes
CS(=O)(=O)Nn1c(=O)[nH]c2cc(C(F)(F)F)c(-c3ccnn3O)cc2c1=O [Compound C-5, N-[6-(2-Hydroxy-2H-pyrazol-3-yl)-2,4-dioxo-7-trifluoromethyl-1,4-dihydro-2H-quinazolin-3-yl]-methanesulfonamide]	Yes
CC(C)n1nccc1-c1cc2c(=O)n(NS(C)(=O)=O)c(=O)[nH]c2cc1C(F)F [Compound C-10, N-[7-Difluoromethyl-6-(2-isopropyl-2H-pyrazol-3-yl)-2,4-dioxo-1,4-dihydro-2H-quinazolin-3-yl]-methanesulfonamide]	Yes
CCCOC(CC)c1cc2c(=O)n(NS(C)(=O)=O)c(=O)[nH]c2cc1C(F)(F)F (stereo not drawn) [Compound A-6, N-[2,4-Dioxo-6-(1-propoxy-propyl)-7-trifluoromethyl-1,4-dihydro-2H-quinazolin-3-yl]-methanesulfonamide]	Yes
COCCC(O)c1cc2c(=O)n(NS(C)(=O)=O)c(=O)[nH]c2cc1C(F)(F)F (stereo not drawn) [Compound A-18, N-[6-(1-Hydroxy-3-methoxy-propyl)-2,4-dioxo-7-trifluoromethyl-1,4-dihydro-2H-quinazolin-3-yl]-methanesulfonamide]	Yes
CCC(OC(C)C)c1cc2c(=O)n(NS(C)(=O)=O)c(=O)[nH]c2cc1C(F)(F)F (stereo not drawn) [Compound A-7, N-[6-(1-isopropoxy-propyl)-2,4-dioxo-7-trifluoromethyl-1,4-dihydro-2H-quinazolin-3-yl]-methanesulfonamide]	Yes
CC(C)c1cc2[nH]c(=O)n(NS(C)(=O)=O)c(=O)c2cc1-c1ccnn1C(C)C [Compound C-8, N-[7-Isopropyl-6-(2-isopropyl-2H-pyrazol-3-yl)-2,4-dioxo-1,4-dihydro-2H-quinazolin-3-yl]-methanesulfonamide]	yes
Cn1nccc1-c1cc2c(=O)n(NS(C)(=O)=O)c(=O)[nH]c2cc1C(C)(F)F [Compound C-15, N-[7-(1,1-difluoro-ethyl)-6-(2-methyl-2H-pyrazol-3-yl)-2,4-dioxo-1,4-dihydro-2H-quinazolin-3-yl]-methanesulfonamide]	Yes
CC(C)n1nccc1-c1cc2c(=O)n(NS(C)(=O)=O)c(=O)[nH]c2cc1CF [Compound C-3, N-[7-Fluoromethyl-6-(2-isopropyl-2H-pyrazol-3-yl)-2,4-dioxo-1,4-dihydro-2H-quinazolin-3-yl]-methanesulfonamide]	Yes
CC(C)OC(C)c1cc2c(=O)n(NS(C)(=O)=O)c(=O)[nH]c2cc1C(F)(F)F (stereo not drawn) [Compound A-4, N-[6-(1-Isopropoxy-ethyl)-2,4-dioxo-7-trifluoromethyl-1,4-dihydro-2H-quinazolin-3-yl]-methanesulfonamide]	Yes
CC(C)n1nccc1-c1cc2c(=O)n(NS(C)(=O)=O)c(=O)[nH]c2cc1C(C)(F)F [Compound C-16, N-[7-(1,1-difluoro-ethyl)-6-(2-isopropyl-2H-pyrazol-3-yl)-2,4-dioxo-1,4-dihydro-2H-quinazolin-3-yl]-methanesulfonamide]	Yes
CS(=O)(=O)Nn1c(=O)[nH]c2cc(C(F)(F)F)c(C3CCCO3)cc2c1=O (stereo not drawn) [Compound B-2, N-[2,4-Dioxo-6-(tetrahydro-furan-2-yl)-7-trifluoromethyl-1,4-dihydro-2H-quinazolin-3-yl]-methanesulfonamide]	Yes
CCOC(CC)c1cc2c(=O)n(NS(C)(=O)=O)c(=O)[nH]c2cc1C(F)(F)F (stereo not drawn) [Compound A-13, N-[6-(1-Ethoxy-propyl)-2,4-dioxo-7-trifluoromethyl-1,4-dihydro-2H-quinazolin-3-yl]-methanesulfonamide]	Yes
CCOC(C)c1cc2c(=O)n(NS(C)(=O)=O)c(=O)[nH]c2cc1C(F)(F)F (stereo not drawn) [Compound A-5, N-[6-(1-Ethoxy-ethyl)-2,4-dioxo-7-trifluoromethyl-1,4-dihydro-2H-quinazolin-3-yl]-methanesulfonamide]	Yes
CC(O)c1cc2c(=O)n(NS(C)(=O)=O)c(=O)[nH]c2cc1C(F)(F)F (stereo not drawn) [Compound A-1, N-[6-(1-Hydroxy-ethyl)-2,4-dioxo-7-trifluoromethyl-1,4-dihydro-2H-quinazolin-3-yl]-methanesulfonamide]	Yes
Cn1nccc1-c1cc2c(=O)n(NS(C)(=O)=O)c(=O)[nH]c2cc1C(F)F [Compound C-9, N-[7-Difluoromethyl-6-(2-methyl-2H-pyrazol-3-yl)-2,4-dioxo-1,4-dihydro-2H-quinazolin-3-yl]-methanesulfonamide]	Yes
CC(C)n1nccc1-c1cc2c(=O)n(NS(C)(=O)=O)c(=O)[nH]c2cc1C(F)(F)F [Compound C-2, N-[6-(2-Isopropyl-2H-pyrazol-3-yl)-2,4-dioxo-7-trifluoromethyl-1,4-dihydro-2H-quinazolin-3-yl]-methanesulfonamide]	Yes
CC(F)c1cc2[nH]c(=O)n(NS(C)(=O)=O)c(=O)c2cc1-c1ccnn1C(C)C (stereo not drawn) [Compound C-17, N-[7-(1-fluoro-ethyl)-6-(2-isopropyl-2H-pyrazol-3-yl)-2,4-dioxo-1,4-dihydro-2H-quinazolin-3-yl]-methanesulfonamide]	Yes
CC(C)c1cc2[nH]c(=O)n(NS(C)(=O)=O)c(=O)c2cc1-c1ccnn1C [Compound C-7, N-[7-Isopropyl-6-(2-methyl-2H-pyrazol-3-yl)-2,4-dioxo-1,4-dihydro-2H-quinazolin-3-yl]-methanesulfonamide]	Yes
COC(C)c1cc2c(=O)n(NS(C)(=O)=O)c(=O)[nH]c2cc1C(F)(F)F (stereo not drawn) [Compound A-2, N-[6-(1-Methoxy-ethyl)-2,4-dioxo-7-trifluoromethyl-1,4-dihydro-2H-quinazolin-3-yl]-methanesulfonamide]	Yes
CCCC(O)c1cc2c(=O)n(NS(C)(=O)=O)c(=O)[nH]c2cc1C(F)(F)F (stereo not drawn) [Compound A-15, N-[6-(1-Hydroxy-butyl)-2,4-dioxo-7-trifluoromethyl-1,4-dihydro-2H-quinazolin-3-yl]-methanesulfonamide]	Yes

Test system: OF1 mice
Experiment: Murine maximal electroshock test (MES Test)
Format: in vivo
Conditions: Mus musculus, po, pre-treatment time 1 h; protected = seizure duration 3 s or less
Description: as §1

Compound	ED50
CC(C)n1nccc1-c1cc2c(=O)n(NS(C)(=O)=O)c(=O)[nH]c2cc1CF [Compound C-3, N-[7-Fluoromethyl-6-(2-isopropyl-2H-pyrazol-3-yl)-2,4-dioxo-1,4-dihydro-2H-quinazolin-3-yl]-methanesulfonamide]	13.5 mg/kg

Same assay, conditions: p.o., pre-treatment time 1 h; protected = seizure duration 3 s or less

Compound	MES-Test (1 h, po) ED50
CS(=O)(=O)Nn1c(=O)[nH]c2cc(C(F)(F)F)c(C3CCCO3)cc2c1=O [B-2 (R), N-[2,4-Dioxo-6-(tetrahydro-furan-2-yl)-7-trifluoromethyl-1,4-dihydro-2H-quinazolin-3-yl]-methanesulfonamide]	12.8 mg/kg
CS(=O)(=O)Nn1c(=O)[nH]c2cc(C(F)(F)F)c(C3CCCO3)cc2c1=O [B-2 (S), N-[2,4-Dioxo-6-(tetrahydro-furan-2-yl)-7-trifluoromethyl-1,4-dihydro-2H-quinazolin-3-yl]-methanesulfonamide]	33.2 mg/kg

Same assay, conditions: percentage of protected mice (5 per condition) @20, p.o., 1 h

Compound	MES-Test (1 h, po) protection @20
Cn1nccc1-c1cc2c(=O)n(NS(C)(=O)=O)c(=O)[nH]c2cc1C(C)(F)F [Compound C-15, N-[7-(1,1-difluoro-ethyl)-6-(2-methyl-2H-pyrazol-3-yl)-2,4-dioxo-1,4-dihydro-2H-quinazolin-3-yl]-methanesulfonamide]	80% @20

Same assay, conditions: percentage of protected mice (5 per condition) @25, p.o., 1 h

Compound	MES-Test (1 h, po) protection @25
COCCn1nccc1-c1cc2c(=O)n(NS(C)(=O)=O)c(=O)[nH]c2cc1C(C)C [Compound C-1, N-{7-Isopropyl-6-[2-(2-methoxy-ethyl)-2H-pyrazol-3-yl]-2,4-dioxo-1,4-dihydro-2H-quinazolin-3-yl}-methanesulfonamide]	40% @25

Same assay, conditions: percentage of protected mice (5 per condition) @50, p.o., 1 h

Compound	MES-Test (1 h, po) protection @50
CC(C)c1cc2[nH]c(=O)n(NS(C)(=O)=O)c(=O)c2cc1-c1ccnn1C(C)C [Compound C-8, N-[7-Isopropyl-6-(2-isopropyl-2H-pyrazol-3-yl)-2,4-dioxo-1,4-dihydro-2H-quinazolin-3-yl]-methanesulfonamide]	40% @50
